Data from patent publication US10172816B2, “Method of treating chronic obstructive pulmonary disease (CPD) with verproside” (YUNGJIN PHARMACEUTICAL CO., LTD, priority 2013, dated 2019).

Key:
IL-1β, IL-6, and TNF-α = assay: COPD rat model (cigarette smoke): cytokine release in BALF by ELISA; format: in vivo, Sprague-Dawley rat; details: ATC2 and Verproside 30 mg/kg, Daxas 1 mg/kg, p.o.
Protocol: The exposure of cigarette smoke was performed by using a cigarette smoke generator (CH Technology Corp. USA). In a detail, 1 hour after the orally administration of test samples using by Head/nose-only exposure unit (TSE System, German) according to nose-only method, the cigarette smoke was exposed by inhalation for 3 days every hour. 8 puffs (volume 35 ml, duration 2 sec, interval 1 time/min) per one piece of standard cigarette was performed in the experiment. The tested groups were divided into five groups, i.e., (i) normal group with no treatment (normal control, NC), (ii) control group exposed with cigarette smoke (COPD), (iii) test sample group treated with Daxas (1 mg/kg, p.o) 1 hr prior to cigarette smoke exposure (DA), (iv) test sample group treated with ATC2 (30 mg/ml, p.o) 1 hr prior to cigarette smoke exposure (YPL), and (v) test sample group treated with Verproside (30 mg/ml, p.o) 1 hr prior to cigarette smoke exposure (Ver). After the end of experiment, the blood, BALF, and pneumonocyte of each rat were isolated and collected to test.
The level of IL-1β, IL-6, and TNF-a (R&D System, USA) in BALF isolated from the rat was determined by enzyme-linked immuno-sorbent assay (ELISA). The analysis of each cytokine was performed according to the manufacturer's manual, and the absorbance was determined at 450 nm by ELISA leader (340PC384, Molecular Devices, USA).

MMP-9 = assay: COPD rat model: MMP-9 activity in lung tissue (gelatin zymography); format: in vivo, Sprague-Dawley rat; details: ATC2 and Verproside 30 mg/kg, p.o.; level similar to Daxas group
Protocol: The exposure of cigarette smoke was performed by using a cigarette smoke generator (CH Technology Corp. USA). In a detail, 1 hour after the orally administration of test samples using by Head/nose-only exposure unit (TSE System, German) according to nose-only method, the cigarette smoke was exposed by inhalation for 3 days every hour. 8 puffs (volume 35 ml, duration 2 sec, interval 1 time/min) per one piece of standard cigarette was performed in the experiment. […]
The lung tissue of rat was homogenized with Tissue lysis buffer (C3228, Sigma-Aldrich, USA) treated with a protease inhibitor (11836153001, Roche, Germany) and the homogenized lung tissue was centrifuged at 12000 rpm for 10 mins to isolate the supernatant. The protein assay reagent (500-0006, Bio-Rad, USA) was used to quantification. […] The density of MMP-9 band was determined using by Chemi-doc (170-8070, Bio-Rad, USA) to determine the activity of MMP-9.

Mucin 5A/C = assay: Acrolein-induced Mucin 5A/C expression in A549 cells (RT-PCR); format: cell-based, human; details: pre-treated 1 hour, then 30 nM acrolein, dose dependent
Protocol: The diluted A549 cell line (ATCC, CCL-185) with DMEM medium supplemented with 5% phenol red and FBS (Fetal Bovine Serum) was seeded in 6 well plates (4×10^5 cells/well) to adhere thereto for a night, and 20 and 40 microgram/ml of ATC2 extract were treated with A549 cell line for 1 hours. 30 nM acrolein was treated therewith to induce Mucin 5A/C expression. The medium was removed the cell, washed with PBS solution and homogenized with Trizol (Invitrogen, CA, USA) for the isolation of ribonucleic acids from the cells for 5 mins. the cells were collected, transferred to centrifugal separator, completely mixed with chloroform for 15 seconds, left alone for 3 mins and centrifuged for 15 mins at the speed of 14,000 rpm. The supernatant containing ribonucleic acid was transferred to new tube and mixed with isopropylalcohol for 10 mins. The solution was centrifuged to discard the supernatant and 75% ethanol was added to the precipitate. The precipitate was centrifuged for 5 mins at the speed of 10,000 rpm and the supernatant was discarded. The precipitated ribonucleic acid was dried at room temperature for 20 mins. […] After the quantification of ribonucleic acid, the complementary DNA was synthesized using by 1 microgram of RNA and RT-kit (Omniscript RT kit, Qiagen, USA) and the synthetic cDNA was used as a template. […]

TNF-α = assay: COPD mouse model (LPS+CS): TNF-α in BALF by ELISA; format: in vivo, BALB/c mice; details: 15 mg/kg, p.o.
Protocol: 8 weeks aged BALB/c male mice was anaesthetized with 7% chloral hydrate and 100 μl of LPS+CS mixture {LPS (100 μg/ml)+standard cigarette extract (Cigarette smoking (CS), 4 mg/ml)=1:1} was inhaled to mice (i.t.) for three weeks once a week to prepare COPD animal model. Briefly, 100 μl of LPS+CS mixture was evenly inhaled to nose and mouth of fastened mice (i.t). […] After the end of experiment, the blood, BALF, and pneumonocyte of each mice were isolated and collected to test. The level of IL-1β, IL-6, TNF-a, IL-17, MCP-1, and GRO-a (BioSource, USA) in BALF isolated from mice was determined by enzyme-linked immuno-sorbent assay. Respective antibodies against L-1β, IL-6, TNF-a, IL-17, MCP-1, and GRO-a were diluted with a coating buffer solution (291195, R&D System, USA), coated on a microwell and left alone for overnight at 4° C. Each well was washed three times with washing buffer solution and 100 μl of 10-fold diluted serum was added thereto. […] The solution was left alone for 30 mins in shadow and added with 50 μl of stop solution (DY994, R&D system, USA) to determine the absorbance using by ELISA leader at 450 nm (340PC384, Molecular Devices, USA).

SMILES: O=C(O[C@H]1[C@@H]2C=CO[C@@H](O[C@@H]3O[C@H](CO)[C@@H](O)[C@H](O)[C@H]3O)[C@@H]2[C@@]2(CO)O[C@@H]12)c1ccc(O)c(O)c1 [verproside, 6-O-(3,4-dihydroxybenzoyl) catalpol]
- level of cytokines (IL-1β, IL-6, TNF-α) in BALF compared with COPD induced group (IL-1β, IL-6, and TNF-α): significantly reduced level
- activity of MMP-9 in lung tissue (MMP-9): remarkably reduced activity
- expression of Mucin 5A/C (mRNA, RT-PCR) (Mucin 5A/C): inhibited
- reduction of TNF-α in BALF compared with control group (TNF-α): more than 42.2%
